The test concerns the target T1, HIV-1 RT (Human immunodeficiency virus type 1 group M subtype B, UniProt P03367).
T1 construct: Reverse transcriptase enzyme from the LAV strain of Human Immunodeficiency Virus (HIV-1) (1) was isolated; made in house; host or cells: E. coli JM109, clone pBRTprtl+ in vector pIBI21 (lac promoter, IPTG induction)
Put plainly: Reverse Transcriptase (RT) Assay: inhibition of RNA-dependent DNA polymerase activity. Type of test: biochemical. Conditions: for inhibition at 1 µM: read-out: RT Assay % inhibition; for inhibition at 10 µg/mL: read-out: RT Assay % inhibition @ 10 µg/ml. From the text:
Utilizing the Reverse Transcriptase (RT) Assay described below, compounds can be tested for their ability to inhibit the RNA-dependent DNA polymerase activity of HIV-1 RT.
Among the enzymes for which Human Immunodeficiency Virus (HIV-1) encodes is a reverse transcriptase (1), so-named because it transcribes a DNA copy from an RNA template. This activity can be quantitatively measured in a cell-free enzyme assay, which has been previously described (2), and is based upon the observation that reverse transcriptase is able to use a synthetic template [poly r(C) primed with oligo d(G)] to transcribe a radio-labelled, acid-precipitable DNA strand utilizing ^3H-dGTP as a substrate.
Reverse transcriptase enzyme from the LAV strain of Human Immunodeficiency Virus (HIV-1) (1) was isolated from the bacterial strain JM109 (3) expressing the DNA clone pBRTprtl+ (2) which is under the control of the lac promotor in the expression vector pIBI21 (4). An overnight culture grown in 2XYT medium (37°C, 225 rpm) (5) supplemented with 100 µg/ml ampicillin for positive selection is inoculated at a 1:40 dilution into M9 medium supplemented with 10µg/ml thiamine, 0.5% casamino acids, and 50 µg/ml ampicillin (5). The culture is incubated (37°C, 225 rpm) until it reaches an OD540 of 0.3-0.4. At that time the repressor inhibitor IPTG (isopropyl β-D-thiogalactopyranoside) is added to 0.5mM, and the mixture is incubated for 2 additional hours. Bacteria are pelleted, resuspended in a 50mM Tris, 0.6mM EDTA, 0.375M NaCl buffer and digested by the addition of lysozyme (1mg/ml) for 30 minutes on ice. The cells are lysed by the addition of 0.2% NP-40 and brought to 1M NaCl.
After removal of the insoluble debris by centrifugation, the protein is precipitated by the addition of 3 volumes of saturated aqueous ammonium sulfate. The enzyme is pelleted, resuspended in RT buffer (50mM Tris pH 7.5, 1mM EDTA, 5mM DTT, 0.1% NP-40, 0.1M NaCl, and 50% glycerol), and stored at -70°C for further use.
The 2X concentrated stock reaction mixture is aliquoted and stored at -20°C. […] This enzyme assay has been adapted to a 96 well microtiter plate system, and has been previously described (6). Tris buffer (50 mM, pH 7.4), vehicle (solvent diluted to match the compound dilution), or compounds in vehicle are dispensed into 96-well microtiter plates (10µl/well; 3 wells/ compound). The HIV-1 RT enzyme is thawed, diluted in 50mM Tris pH 7.4 so that fifteen µl of diluted enzyme contain 0.001 Unit (one unit is that amount of enzyme to transform 1 micromole of substrate per minute at 25°C), and fifteen µl are dispensed per well. Twenty µl of 0.12-0.5M EDTA are added to the first three wells of the microtiter plate. EDTA chelates the Mg^++ present and prevents reverse transcription. This group serves as background polymerization which is subtracted from all other groups. Twenty-five µl of the 2X reaction mixture are added to all wells and the assay is allowed to incubate at room temperature for 60 minutes. The assay is terminated by precipitating the DNA in each well with 50µl of 10% trichloracetic acid (TCA) (10% w/v) in sodium pyrophosphate (1% w/v). The microtiter plate is incubated for 15 minutes at 4°C and the precipitate is fixed onto #30 glass fiber paper (Schleicher & Schuell) using a Skatron semi-automatic harvester. The filters are then washed with additional TCA (5%) containing sodium pyrophosphate (1%), rinsed with aqueous ethanol (70%), dried, and transferred to scintillation vials (6). Each vial receives 2 mls of scintillation cocktail and is counted in a Beckman beta counter.
The calculation for percent inhibition is as follows: %inhibition =(CPM Mean Test Value - CPM Mean Control Value X100)/(CPM Mean Control Value) [formula]

Here are results for 28 compounds from EP0429987B1, “5,11-Dihydro-6H-dipyrido[3,2-b:2',3'-e] [1,4]diazepines and their use in the prevention or treatment of HIV infection” (priority 1989, dated 1991).

Like-named read-outs stand apart in the source and are kept apart here.

`CCN1c2ncccc2C(=O)N(C)c2ccc(N(C)C)nc21` [Example 60]: the inhibition at 1 µM (@ 1µM (footnote *)) came to 90%. Regarding `CC(=O)N1C(=O)c2cccnc2N(C2CC2)c2nccc(C)c21` [Example 54], the inhibition at 0.5 µM (@ 0.5µM) was 30%. Regarding `CCc1ccnc2c1NC(=O)c1cccnc1N2C1CCC1` [Example 9], the inhibition at 1 µM (@ 1µM (footnote *)) is 75%. Same read-out and setting: for `CN1C(=O)c2cccnc2N(C2CCCCC2)c2ncccc21` [Example 44] the value was 90%; for `CCN1c2ncccc2C(=O)Nc2c(C)cc(Cl)nc21` [Example 12], 91%. The same measure, in the same setting: in the case of `CCN1c2ncccc2C(=O)N(C)c2ccc(NCc3ccc(OC)cc3)nc21` [Example 55] it was 61%.

For `O=C1Nc2c(CO)ccnc2N(C2CC2)c2ncccc21` [Example 38], the inhibition at 1 µM (@ 1µM (footnote *)) worked out at 34%. `CN1C(=O)c2cccnc2N(C(C)(C)C)c2ncccc21` [Example 15]: the inhibition at 10 µg/mL came out at 87%. In the case of `O=C1Nc2cccnc2N(C2CCCCC2)c2ncccc21` [Example 45], the inhibition at 1 µM (@ 1µM (footnote *)) came to 35%. For `CCN1c2ncccc2C(=NC#N)Nc2c(C)cc(C)nc21` [Example 66, 6-Cyanoimino-5,11-dihydro-11-ethyl-2,4-dimethyl-6H-dipyrido[3,2-b:2',3'-e][1,4]diazepine], the inhibition at 10 µg/mL was found to be 100%. Regarding `O=C1Nc2cccnc2N(C2CCCC2)c2ncccc21` [Example 24], the inhibition at 1 µM (@ 1µM (footnote *)) stood at 35%. `CCN1c2ncc(N)cc2C(=O)N(C)c2cc(N)cnc21` [Example 51]: the inhibition at 1 µM (@ 1µM (footnote *)) was found to be 20%. Still for that read-out and setting: in the case of `Cc1ccnc2c1N(O)C(=O)c1cccnc1N2C1CC1` [Example 4, 11-Cyclopropyl-5,11-dihydro-5-hydroxy-4-methyl-6H-dipyrido[3,2-b:2',3'-e][1,4]diazepin-6-one] it was 36%; in that of `CN(C)CCN1C(=O)c2cccnc2N(C2CC2)c2ncccc21` [Example 59], 8%. On to `COCN1C(=O)c2cccnc2N(COC)c2nccc(C)c21` [Example 29], for which the inhibition at 10 µg/mL amounted to 0%. In the case of `CCN1c2ncccc2C(=O)N(C)c2ccc(N3CCOCC3)nc21` [Example 56], the inhibition at 1 µM (@ 1µM (footnote *)) was found to be 68%. Turning to `CCN1c2ncccc2C(=O)Nc2c(C(F)(F)F)cc(C)nc21` [Example 1, 5,11-Dihydro-11-ethyl-2-methyl-4-trifluoromethyl-6H-dipyrido-[3,2-b:2',3'-e][1,4]diazepin-6-one], the inhibition at 10 µg/mL was found to be 100%. In the case of `CCN1c2ncccc2NC(=O)c2c(C)cc(C)nc21` [Example 27], where the note is “@ 1µM (footnote *)”, the inhibition at 1 µM was 2%. Same read-out and setting: for `CCN1c2ncccc2C(=O)Nc2c1nc(N1CCCC1)c(Cl)c2C` [Example 64] the value was 94%. For `CCN1c2ncccc2C(=NOC)Nc2c(C)cc(C)nc21` [Example 67, 5,11-Dihydro-11-ethyl-6-methoxyimino-2,4-dimethyl-6H-dipyrido[3,2-b:2',3'-e][1,4]diazepine], the inhibition at 1 µM turned out to be 88%.

`N#Cc1ccnc2c1NC(=O)c1cccnc1N2C1CC1` [Example 58] came in with an inhibition at 1.25 µM (@ 1.25µM (footnote +)) of 37%.

For the compound `O=C1Nc2c(Cl)ccnc2N(C2CC2)c2ncccc21` [Example 33], the inhibition at 1 µM (@ 1µM (footnote *)) stood at 83%. Still for that read-out and setting: for `CCNc1ccc2c(n1)N(CC)c1ncccc1C(=O)N2C` [Example 61] the value was 75%. In the case of `CC(C)N1c2ncccc2NC(=O)c2cccnc21` [Example 17], the inhibition at 10 µg/mL stood at 99%.

As to `CN1C(=O)c2cccnc2N(C2CCC2)c2ncccc21` [Example 32], the inhibition at 10 µg/mL came to 100%.

With `CCN1c2ncc([N+](=O)[O-])cc2C(=O)N(C)c2cccnc21` [Example 62], the inhibition at 1 µM (@ 1µM (footnote *)) is 0%.

For `Cc1cc(Cl)nc2c1NC(=O)c1cccnc1N2C1CC1` [Example 13], the inhibition at 1 µM (@ 1µM (footnote *)) came out at 90%. For `CCN1c2ncc([N+](=O)[O-])cc2C(=O)N(C)c2cc([N+](=O)[O-])cnc21` [Example 39], the inhibition at 1 µM stood at 0%.
